Here are results for 5 compounds from PMC8101618, “Comparable Initial Engagement of Intracellular Signaling Pathways by Parathyroid Hormone Receptor Ligands Teriparatide, Abaloparatide, and Long‐Acting PTH” (JBMR Plus, 2021).

The target of experiment [1] is T1, PTH1R (endogenous, Ocy454 cells) (Mus musculus, UniProt P41593).
T1 construct: effects of distinct PTH1R ligands on endogenous receptors in Ocy454 cells; endogenous in cells; host or cells: Ocy454 cells (murine osteocyte-like line, subclone 6-9)
T1 sequence (P41593 27-591): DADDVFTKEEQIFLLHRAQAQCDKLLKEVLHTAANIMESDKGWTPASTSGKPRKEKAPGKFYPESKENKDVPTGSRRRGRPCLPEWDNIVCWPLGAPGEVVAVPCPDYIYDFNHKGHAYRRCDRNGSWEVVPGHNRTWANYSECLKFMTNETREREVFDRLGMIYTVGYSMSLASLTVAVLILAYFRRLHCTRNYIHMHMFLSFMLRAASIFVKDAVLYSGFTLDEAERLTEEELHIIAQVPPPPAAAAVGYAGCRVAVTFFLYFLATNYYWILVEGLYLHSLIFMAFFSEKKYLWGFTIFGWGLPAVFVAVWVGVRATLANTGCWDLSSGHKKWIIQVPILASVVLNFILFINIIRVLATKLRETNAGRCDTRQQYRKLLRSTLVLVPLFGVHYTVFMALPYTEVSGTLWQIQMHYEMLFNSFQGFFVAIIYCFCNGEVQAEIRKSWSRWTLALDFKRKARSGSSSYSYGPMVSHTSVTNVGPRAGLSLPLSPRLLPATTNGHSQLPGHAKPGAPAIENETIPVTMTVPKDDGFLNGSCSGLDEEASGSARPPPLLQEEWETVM
The experiment is described as follows: intracellular cAMP in Ocy454 cells. The format is cell-based, murine. Conditions: IBMX (2mM), 30 min, room temperature, radioimmunoassay, repeated three times, Fig 3A, read-out: cAMP generation EC50. The method, then:
Confluent Ocy454 cells in 96‐well plates were treated with a abaloparatide or a PTH analog at varying concentrations in a buffer of Hanks balanced salts solution (HBSS) containing 0.1% BSA and 3‐isobutyl‐1‐methylxanthine (IBMX) (2mM) for 30 min at room temperature. The buffer was then removed and the cells were lysed by placing the plate on a bed of powdered dry ice and adding 50 μL of 50mM HCl. After freezing and thawing, the lysates were diluted in water and then assessed for cAMP content by radioimmunoassay.
First, we assessed the effects of different PTH analogs on cAMP generation. For this, cells were treated with different concentrations of peptides in the presence of IBMX for 30 min at room temperature, followed by radioimmunoassay for cAMP.

Experiment [2] deals with Gαq/phospholipase signaling. The conditions noted are these: cited from earlier work. The method, then:
(§1) First, we assessed the ability of distinct PTH1R peptide ligands (Fig. 1A ) to induce Gαq/PKC‐dependent increases in intracellular calcium in HEK293 cells stably expressing hPTH1R (GP‐2.3 cells). For this, cells were preloaded with the calcium indicator dye Fura2‐AM, and then treated with different PTH ligands at a concentration of 100nM. Intracellular calcium fluxes were measured by ratiometric fluorescence (excitation = 340 nm and 380 nm, emission = […]) over time.

The next experiment concerns hPTH1R. Briefly: intracellular calcium (Fura2-AM) in HEK293/hPTH1R/glosensor (GP-2.3) cells. The format is cell-based, human. The conditions noted are these: 100nM; HEK293 cells stably expressing hPTH1R (GP-2.3); Fura2-AM ratiometric fluorescence 340/380 nm; 150 s after ligand addition; repeated two times. The procedure:
Signaling via the iCa^++ pathway was assessed in stably transfected HEK‐HEK293/hPTH1R/glosensor (GP‐2.3) cells using the calcium‐sensitive fluorophore Fura2‐AM (Invitrogen, Life Tech. Grand Island, NY, USA).^( ^32 ^) Confluent cells in a black, 96‐well plate were preloaded with Fura2‐AM (5μM) for 45 min and then unloaded in buffer for 30 min. The plate was then processed using a Perkin Elmer Envision plate reader (Perkin Elmer, Waltham, MA, USA) to monitor fluorescence emission at a wavelength (λem) of 515 nm, upon sequential excitation at wavelengths (λex) of 340 nm and 380 nm. Data were recorded at 2‐s intervals for 10 s prior to, and for 150 s after ligand addition. The data at each time point were calculated as the ratio of the fluorescence signal obtained with excitation at 340 nm to that obtained with excitation at 380 nm.
as §1

For a further experiment, the system named is ratPTH1R. Briefly: internalization of TMR-labeled ligand-PTH1R complexes in GR-35 cells. The format is cell-based, rat. The conditions noted are these: TMR-labeled ligands (TMR at Lys13), 15 min, 21°C, HEK293 ratPTH1R/glosensor GR-35 cells, epifluorescent microscopy; 100nM (methods) or 10nM (results); repeated two times. The procedure:
Internalization of ligand‐PTH1R complexes was assessed by fluorescent microscopy in stably transfected HEK293/ratPTH1R/glosensor (GR‐35) cells. The cells were cultured on glass coverslips in 24‐well plates to ~75% of confluency, and then treated with a tetramethylrhodamine (TMR)‐labeled PTH analog (100nM, TMR attached to Lys13) in HBSS containing 0.1% BSA (HB buffer) for 15 min at 21°C. The cells were then rinsed thrice with HB buffer, fixed with 4% formalin for 5 min, mounted with vector‐shield containing 4,6‐diamidino‐2‐phenylindole (DAPI) on a glass microscope slide, and viewed and digitally imaged using a Nikon epifluorescent microscope (Nikon, Tokyo, Japan) equipped with a charge‐coupled device (CCD) camera configured with SPOT imaging software (SPOT Imaging, Sterling Heights, MI, USA).
Next, we asked whether PTH analogs might have different effects on PTH1R activation‐dependent internalization. For this, HEK293 cells stably expressing a rat PTH1R cDNA (GR‐35 cells) were treated with tetramethyl‐rhodamine‐labeled versions of hPTH (1‐34), PTHrP, and abaloparatide (the TMR fluorophore is attached at the K13 position of each peptide). Cells were treated for 15 min at room temperature (21°C) at peptide doses of 10nM. After excess unbound peptide was washed away, cells were examined by epifluorescent microscopy.

Where no end group is shown, it is not given here. TMR = tetramethyl-rhodamine

With `CC[C@H](C)[C@H](NC(=O)[C@H](CO)NC(=O)[C@H](CCCCN)NC(=O)CNC(=O)[C@H](CCCCN)NC(=O)[C@H](CC(=O)O)NC(=O)[C@H](Cc1cnc[nH]1)NC(=O)[C@H](CC(C)C)NC(=O)[C@H](CC(C)C)NC(=O)[C@H](CCC(N)=O)NC(=O)[C@H](Cc1cnc[nH]1)NC(=O)[C@H](CCC(=O)O)NC(=O)[C@H](CO)NC(=O)[C@@H](NC(=O)[C@H](C)N)C(C)C)C(=O)N[C@@H](CCC(N)=O)C(=O)N[C@@H](CC(=O)O)C(=O)N[C@@H](CC(C)C)C(=O)N[C@@H](CCCNC(=N)N)C(=O)N[C@@H](CCCNC(=N)N)C(=O)N[C@@H](CCCNC(=N)N)C(=O)N[C@@H](CCC(=O)O)C(=O)N[C@@H](CC(C)C)C(=O)N[C@@H](CC(C)C)C(=O)N[C@@H](CCC(=O)O)C(=O)N[C@@H](CCCCN)C(=O)N[C@@H](CC(C)C)C(=O)N[C@@H](CC(C)C)C(=O)NC(C)(C)C(=O)N[C@@H](CCCCN)C(=O)N[C@@H](CC(C)C)C(=O)N[C@@H](Cc1cnc[nH]1)C(=O)N[C@H](C(=O)N[C@@H](C)C(N)=O)[C@@H](C)O` [abaloparatide], the EC50 in experiment [1] was 0.589 nM.
Still for that read-out and setting: then “AVAEIQLMHQRAKWIQDARRRAFLHKLIAEIHTAEI [LA‐PTH]”, with 0.562 nM.
Take “Trp1‐PTH (1‐34): a PTH analog defective at activating Gαq/phospholipase signaling (WVSEIQLMHNLGKHLNSMERVEWLRKKLQDVHNF; Parathyroid hormone; UniProt P01270 32-65, looked up, variant S1W)”: the “activation of Gαq/phospholipase signaling” value in experiment [2] is on record as “defective at activating Gαq/phospholipase signaling”. In addition, the intracellular calcium release entry in the experiment on hPTH1R was “does not stimulate intracellular calcium”.
For “^TMRPTHc35 (1‐35): Tetramethyl‐rhodamine (TMR)‐labeled version of PTH, TMR attached to Lys13 (SVSEIQLMHNLGK(TMR)HLNSMERVEWLRKKLQDVHNFV; UniProt P01270 32-66, looked up, fragment)”, in the experiment on ratPTH1R, the ligand-PTH1R internalization entry is “induced ligand‐PTH1R internalization”.
Still for that read-out and setting: as for “^TMRPTHrP (1‐36): Tetramethyl‐rhodamine (TMR)‐labeled version of PTHrP, TMR attached to Lys13”, the entry is “induced ligand‐PTH1R internalization”.
